Toxic doses and inconclusive results are not listed.
Tested on: L1210 leukemia ip in BDF1 mice, survival T/C
Experiment: NCI In Vivo Anticancer Drug Screen. Data for tumor model L1210 Leukemia (intraperitoneal) in B6D2F1 (BDF1) mice
Details: endpoint: mean survival time, higher = longer survival
Outline: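 Read-out is survival time, reported as the treated-group measurement over the vehicle-control measurement.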

[1] = dose: 50.0 mg/kg/injection, schedule: Q01DX009 (ip), vehicle: saline
[2] = dose: 100.0 mg/kg/injection, schedule: Q01DX009 (ip), vehicle: saline

For `CC(=O)c1ccc(S(=O)(=O)Cl)cc1`, which T/C (dose: 50.0 mg/kg/injection, schedule: Q01DX001 (ip), vehicle: saline) is on record?
Its T/C is 113 % of control.

What about the T/C (dose: 100.0 mg/kg/injection, schedule: Q01DX001 (ip), vehicle: saline) of the same compound?
The T/C was 90 % of control.

What about the T/C (dose: 200.0 mg/kg/injection, schedule: Q01DX001 (ip), vehicle: saline) of the same compound?
The T/C was 104 % of control.

Which results are given for `CCCCCCP(=S)(CCCC)CCCCCC`?
T/C (dose: 100.0 mg/kg/injection, schedule: Q04DX002 (ip), vehicle: Klucel (hydroxypropylcellulose) (HPC)): 102 % of control; T/C (dose: 200.0 mg/kg/injection, schedule: Q04DX002 (ip), vehicle: Klucel (hydroxypropylcellulose) (HPC)): 102 % of control; T/C (dose: 400.0 mg/kg/injection, schedule: Q04DX002 (ip), vehicle: Klucel (hydroxypropylcellulose) (HPC)): 102 % of control

What does the source list for `O=N/N=c1/sc2ccccc2n1-c1ccccc1`?
T/C (dose: 100.0 mg/kg/injection, schedule: Q01DX001 (ip), vehicle: Klucel (hydroxypropylcellulose) (HPC)): 103 % of control; T/C (dose: 200.0 mg/kg/injection, schedule: Q01DX001 (ip), vehicle: Klucel (hydroxypropylcellulose) (HPC)): 94 % of control; T/C (dose: 400.0 mg/kg/injection, schedule: Q01DX001 (ip), vehicle: Klucel (hydroxypropylcellulose) (HPC)): 100 % of control

Which results are given for `CC(O)C/C=N\N=C(N)N` (stereo unspecified)?
T/C (dose: 15.0 mg/kg/injection, schedule: Q01DX Z (ip), vehicle: methylcellulose (MC)): 95 % of control; T/C (dose: 15.0 mg/kg/injection, schedule: Q01DX Z (oral), vehicle: methylcellulose (MC)): 101 % of control; T/C (dose: 30.0 mg/kg/injection, schedule: Q01DX Z (oral), vehicle: methylcellulose (MC)): 88 % of control; T/C (dose: 60.0 mg/kg/injection, schedule: Q01DX Z (oral), vehicle: methylcellulose (MC)): 94 % of control; T/C (dose: 120.0 mg/kg/injection, schedule: Q01DX Z (oral), vehicle: methylcellulose (MC)): 88 % of control

Which results are given for `CCCN(CCC)S(=O)(=O)CCC`?
T/C (dose: 50.0 mg/kg/injection, schedule: Q04DX002 (ip), vehicle: saline with Tween-80): 97 % of control; T/C (dose: 100.0 mg/kg/injection, schedule: Q04DX002 (ip), vehicle: saline with Tween-80): 97 % of control; T/C (dose: 200.0 mg/kg/injection, schedule: Q04DX002 (ip), vehicle: saline with Tween-80): 101 % of control

Which results are given for `COC(CBr)c1ccccc1` (stereo unspecified)?
T/C (dose: 12.5 mg/kg/injection, schedule: Q04DX003 (ip), vehicle: Klucel (hydroxypropylcellulose) (HPC)): 98 % of control; T/C (dose: 25.0 mg/kg/injection, schedule: Q01DX009 (ip), vehicle: saline): 108 % of control; T/C (dose: 25.0 mg/kg/injection, schedule: Q04DX003 (ip), vehicle: Klucel (hydroxypropylcellulose) (HPC)): 101 % of control; T/C [1]: 98 % of control; T/C (dose: 50.0 mg/kg/injection, schedule: Q04DX003 (ip), vehicle: Klucel (hydroxypropylcellulose) (HPC)): 96 % of control; T/C [2]: 95 % of control

With `O=C(O)CCc1c[nH]c2ccc(N(CCCl)CCCl)cc12` as the compound, how does the T/C (dose: 0.7 mg/kg/injection, schedule: Q01DX Z (ip), vehicle: carboxymethylcellulose (CMC)) read?
Its T/C is 114 % of control.

What about the T/C (dose: 1.5 mg/kg/injection, schedule: Q01DX Z (ip), vehicle: carboxymethylcellulose (CMC)) of the same compound?
The T/C was 116 % of control.

And the T/C (dose: 1.87 mg/kg/injection, schedule: Q01DX001 (ip), vehicle: carboxymethylcellulose (CMC))?
The T/C was 121 % of control.

What about the T/C (dose: 3.75 mg/kg/injection, schedule: Q01DX001 (oral), vehicle: carboxymethylcellulose (CMC)) of the same compound?
The T/C was 119 % of control.

And the T/C (dose: 7.5 mg/kg/injection, schedule: Q01DX001 (ip), vehicle: carboxymethylcellulose (CMC))?
The T/C was 173 % of control.

What about the T/C (dose: 15.0 mg/kg/injection, schedule: Q01DX001 (oral), vehicle: carboxymethylcellulose (CMC)) of the same compound?
Its T/C is 103 % of control.

`CC1(C)CC(=O)NN1C(=O)c1ccccc1` was tested. Which T/C (dose: 100.0 mg/kg/injection, schedule: Q04DX003 (ip), vehicle: saline with Tween-80) did it give?
The T/C was 108 % of control.

And the T/C (dose: 200.0 mg/kg/injection, schedule: Q04DX003 (ip), vehicle: saline with Tween-80)?
The T/C was 103 % of control.

And the T/C (dose: 400.0 mg/kg/injection, schedule: Q04DX003 (ip), vehicle: saline with Tween-80)?
The T/C was 102 % of control.

For `CC1OCC(C)(CO)CO1` (stereo unspecified), which T/C [1] is on record?
The T/C was 102 % of control.

And the T/C [2]?
The T/C was 101 % of control.

What about the T/C (dose: 100.0 mg/kg/injection, schedule: Q04DX003 (ip), vehicle: acetone) of the same compound?
Its T/C is 106 % of control.

And the T/C (dose: 200.0 mg/kg/injection, schedule: Q01DX009 (ip), vehicle: saline)?
The T/C was 98 % of control.

What about the T/C (dose: 200.0 mg/kg/injection, schedule: Q04DX003 (ip), vehicle: acetone) of the same compound?
Its T/C is 122 % of control.

And the T/C (dose: 400.0 mg/kg/injection, schedule: Q04DX003 (ip), vehicle: acetone)?
Its T/C is 111 % of control.

How did the T/C (dose: 100.0 mg/kg/injection, schedule: Q01DX001 (ip), vehicle: other) turn out when `CC(=O)Nc1cc(NC(C)=O)c2nc(CN(C)c3ccc(C(=O)O)cc3)cnc2n1` was run?
The T/C was 101 % of control.

What about the T/C (dose: 200.0 mg/kg/injection, schedule: Q01DX001 (ip), vehicle: other) of the same compound?
The T/C was 98 % of control.

And the T/C (dose: 400.0 mg/kg/injection, schedule: Q01DX001 (ip), vehicle: other)?
The T/C was 97 % of control.

Source: PubChem BioAssay AID248 (DTP/NCI, 2004)
